Experimental data published in PubChem BioAssay (NCI).
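Assay format: 96-well plates, 48-hour exposure. Here, GI50 denotes the concentration required for 50% inhibition of growth. TGI: total growth inhibition.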

What was measured:
Assay in all cases: NCI anticancer screen, dose series, 48 h
OVCAR-3 ovarian = system: OVCAR-3 ovarian
DU-145 prostate = system: DU-145 prostate
OVCAR-8 ovarian = system: OVCAR-8 ovarian
KM20L2 colon = system: KM20L2 colon
LXFL 529 NSCLC = system: LXFL 529 NSCLC
SK-MEL-2 melanoma = system: SK-MEL-2 melanoma
K-562 leukemia = system: K-562 leukemia
NCI-H460 lung = system: NCI-H460 lung
DMS 114 small cell lung = system: DMS 114 small cell lung
TK-10 renal = system: TK-10 renal

`COc1ccc2[nH]c3c4c(ccc3c2c1)C(=O)C=CC4=O` showed a TGI (OVCAR-3 ovarian) of 20.8 µM, a TGI (DU-145 prostate) of over 100 µM and a TGI (OVCAR-8 ovarian) of 12.4 µM. It also gave a TGI (KM20L2 colon) of 43.1 µM, a TGI (LXFL 529 NSCLC) of 14.8 µM and a TGI (SK-MEL-2 melanoma) of 28.5 µM. It also gave a TGI (K-562 leukemia) of 3.97 µM, a TGI (NCI-H460 lung) of 54.1 µM and a TGI (DMS 114 small cell lung) of 27 µM. The TGI (TK-10 renal) was 28.1 µM.

`O=C1c2ccc3c4ccccc4n(Cc4ccccc4)c3c2C(=O)N1c1ccccc1` gave a TGI (OVCAR-3 ovarian) of 11.9 µM, a TGI (OVCAR-8 ovarian) of 31.9 µM and a TGI (KM20L2 colon) of 45.2 µM. The TGI (LXFL 529 NSCLC) was 27.7 µM, the TGI (SK-MEL-2 melanoma) was 46.5 µM and the TGI (K-562 leukemia) was 34.2 µM. The TGI (NCI-H460 lung) was over 100 µM, the TGI (DMS 114 small cell lung) was 34.1 µM and the TGI (TK-10 renal) was 29 µM.

With `COC(=O)/C(C#N)=C1\CCC(O)N1` (centres undefined) the TGI (OVCAR-3 ovarian) was over 100 µM, the TGI (OVCAR-8 ovarian) was over 100 µM and the TGI (KM20L2 colon) was over 100 µM. For the same molecule, the TGI (LXFL 529 NSCLC) was over 100 µM, the TGI (SK-MEL-2 melanoma) was over 100 µM and the TGI (K-562 leukemia) was over 100 µM. It also gave a TGI (NCI-H460 lung) of over 100 µM, a TGI (DMS 114 small cell lung) of over 100 µM and a TGI (TK-10 renal) of over 100 µM.

For `CC(=O)c1sc(-c2nc(C)c(C(=O)/C=C\c3ccc(/C=C\C(=O)c4sc(-c5nc(C)c(C(C)=O)s5)nc4C)cc3)s2)nc1C`, the TGI (OVCAR-3 ovarian) was over 100 µM, the TGI (OVCAR-8 ovarian) was over 100 µM and the TGI (KM20L2 colon) was over 100 µM. For the same molecule, the TGI (LXFL 529 NSCLC) was over 100 µM, the TGI (SK-MEL-2 melanoma) was over 100 µM and the TGI (K-562 leukemia) was over 100 µM. For the same molecule, the TGI (NCI-H460 lung) was over 100 µM, the TGI (DMS 114 small cell lung) was over 100 µM and the TGI (TK-10 renal) was over 100 µM.

Work on `[Au+].[Au+].[Au+].[c-]1nccn1Cc1ccccc1.[c-]1nccn1Cc1ccccc1.[c-]1nccn1Cc1ccccc1` yielded a GI50 (OVCAR-3 ovarian) of 2.33 µM, a TGI (OVCAR-3 ovarian) of 5.27 µM and a GI50 (DU-145 prostate) of 17.7 µM. For the same molecule, the TGI (DU-145 prostate) was 32.4 µM, the GI50 (OVCAR-8 ovarian) was 5.06 µM and the TGI (OVCAR-8 ovarian) was over 42.6 µM. It also gave a GI50 (KM20L2 colon) of 26.9 µM, a TGI (KM20L2 colon) of over 73 µM and a GI50 (LXFL 529 NSCLC) of 1.83 µM. For the same molecule, the TGI (LXFL 529 NSCLC) was 3.22 µM, the GI50 (SK-MEL-2 melanoma) was 1.98 µM and the TGI (SK-MEL-2 melanoma) was 3.9 µM. For the same molecule, the GI50 (K-562 leukemia) was 3.82 µM, the TGI (K-562 leukemia) was 25 µM and the GI50 (NCI-H460 lung) was 11.6 µM. For the same molecule, the TGI (NCI-H460 lung) was 54.5 µM, the GI50 (DMS 114 small cell lung) was 1.65 µM and the TGI (DMS 114 small cell lung) was 3.13 µM. It also gave a GI50 (TK-10 renal) of 11.1 µM and a TGI (TK-10 renal) of 29.6 µM.

`CC1=NN(C(=O)CC(=O)N(C(=O)c2ccccc2Cl)c2ccc(C)cc2)C(=O)C1N=Nc1ccc([N+](=O)[O-])cc1` (centres undefined) gave a TGI (OVCAR-3 ovarian) of over 100 µM, a TGI (OVCAR-8 ovarian) of 78.1 µM and a TGI (KM20L2 colon) of over 90.1 µM. For the same molecule, the TGI (LXFL 529 NSCLC) was over 100 µM, the TGI (SK-MEL-2 melanoma) was over 100 µM and the TGI (K-562 leukemia) was over 80.8 µM. For the same molecule, the TGI (NCI-H460 lung) was over 76.5 µM, the TGI (DMS 114 small cell lung) was over 60.5 µM and the TGI (TK-10 renal) was over 100 µM.

`CCCCOC(=O)NC(=O)c1cn(CCCOC(=O)NCCCCCCNC(=O)OCCCn2cc(C(=O)NC(=O)OCCCC)c(=O)[nH]c2=O)c(=O)[nH]c1=O` showed a TGI (OVCAR-3 ovarian) of over 100 µM, a TGI (OVCAR-8 ovarian) of over 100 µM and a TGI (KM20L2 colon) of over 100 µM. The TGI (LXFL 529 NSCLC) was over 100 µM, the TGI (SK-MEL-2 melanoma) was over 100 µM and the TGI (K-562 leukemia) was over 100 µM. The TGI (NCI-H460 lung) was over 100 µM, the TGI (DMS 114 small cell lung) was over 100 µM and the TGI (TK-10 renal) was over 100 µM.

`COc1ccc(C2c3cc(OC)c(OC)cc3C(Cc3ccc([N+](=O)[O-])cc3)C2c2ccc([N+](=O)[O-])cc2)cc1OC` (centres undefined) showed a TGI (OVCAR-3 ovarian) of over 100 µM, a TGI (OVCAR-8 ovarian) of over 100 µM and a TGI (KM20L2 colon) of over 100 µM. It also gave a TGI (LXFL 529 NSCLC) of over 100 µM, a TGI (SK-MEL-2 melanoma) of over 100 µM and a TGI (K-562 leukemia) of over 100 µM. The TGI (NCI-H460 lung) was over 100 µM, the TGI (DMS 114 small cell lung) was over 100 µM and the TGI (TK-10 renal) was over 100 µM.

Molecule `Nc1ccn(C2(CO)C=C(CO)C(O)C2O)c(=O)n1` (centres undefined) has a TGI (OVCAR-3 ovarian) of over 25.8 µM, a TGI (OVCAR-8 ovarian) of over 25.8 µM and a TGI (KM20L2 colon) of over 25.8 µM. It also gave a TGI (LXFL 529 NSCLC) of over 25.8 µM, a TGI (SK-MEL-2 melanoma) of over 25.8 µM and a TGI (K-562 leukemia) of over 25.8 µM. It also gave a TGI (NCI-H460 lung) of over 25.8 µM, a TGI (DMS 114 small cell lung) of over 25.8 µM and a TGI (TK-10 renal) of over 25.8 µM.

Molecule `O=C1[C@H]2ON(c3ccccc3)C(c3ccc(Cl)cc3)[C@H]2C(=O)N1c1ccc(Cc2ccc(N3C(=O)[C@@H]4ON(c5ccccc5)C(c5ccc(Cl)cc5)[C@@H]4C3=O)cc2)cc1` (some centres undefined) has a TGI (OVCAR-3 ovarian) of over 100 µM, a TGI (OVCAR-8 ovarian) of over 100 µM and a TGI (KM20L2 colon) of over 100 µM. It also gave a TGI (LXFL 529 NSCLC) of over 100 µM, a TGI (SK-MEL-2 melanoma) of over 100 µM and a TGI (K-562 leukemia) of over 100 µM. It also gave a TGI (NCI-H460 lung) of over 100 µM, a TGI (DMS 114 small cell lung) of over 100 µM and a TGI (TK-10 renal) of over 100 µM.

With `Oc1cc(C2OCCCO2)cc(O)c1O` the TGI (OVCAR-3 ovarian) was over 100 µM, the TGI (OVCAR-8 ovarian) was over 100 µM and the TGI (KM20L2 colon) was over 100 µM. The TGI (LXFL 529 NSCLC) was over 100 µM, the TGI (SK-MEL-2 melanoma) was over 100 µM and the TGI (K-562 leukemia) was over 100 µM. It also gave a TGI (NCI-H460 lung) of over 100 µM, a TGI (DMS 114 small cell lung) of over 100 µM and a TGI (TK-10 renal) of over 100 µM.

`COc1cccc(-n2c3nc(=O)n(C)c(=O)c-3nc3ccccc32)c1` was tested, and the TGI (OVCAR-3 ovarian) was 8.8 µM, the TGI (OVCAR-8 ovarian) was 49.6 µM and the TGI (KM20L2 colon) was 62.6 µM. The TGI (LXFL 529 NSCLC) was 81.8 µM, the TGI (SK-MEL-2 melanoma) was 56 µM and the TGI (K-562 leukemia) was over 100 µM. It also gave a TGI (NCI-H460 lung) of 33.4 µM, a TGI (DMS 114 small cell lung) of 25.4 µM and a TGI (TK-10 renal) of over 100 µM.

Work on `Cc1cc(C)c(C2[C@H]3C(=O)N(c4ccc(Cc5ccc(N6C(=O)[C@@H]7ON(c8ccccc8)C(c8c(C)cc(C)cc8C)[C@@H]7C6=O)cc5)cc4)C(=O)[C@H]3ON2c2ccccc2)c(C)c1` (some centres undefined) yielded a TGI (OVCAR-3 ovarian) of over 100 µM, a TGI (OVCAR-8 ovarian) of over 100 µM and a TGI (KM20L2 colon) of over 100 µM. The TGI (LXFL 529 NSCLC) was over 100 µM, the TGI (SK-MEL-2 melanoma) was over 100 µM and the TGI (K-562 leukemia) was over 100 µM. The TGI (NCI-H460 lung) was over 100 µM, the TGI (DMS 114 small cell lung) was over 100 µM and the TGI (TK-10 renal) was over 100 µM.
